Structures can show the parent of a compound that is named as a salt.
Assays:
DYRK1B = molecular target: T1, DYRK1B (Homo sapiens, UniProt Q9Y463); assay: DYRK1B in vitro kinase assay (ADP-Glo); type: biochemical; settings: ADP-Glo assay, ATP 15 μM (Km), substrate 7 μM, enzyme 1 nM or 0.3 nM, 1 h, rt; read-out: DYRK1B IC50
T1 construct: purchased Carna Bioscence (Carna Biosciences) 04-131
Method: The compounds of the present invention were tested for their inhibitory activity against DYRK1A and DYRK1B kinases once or several times. When tested more than once, the data are reported herein as average value, wherein the average value, also referred to as the mean value, represents the sum of obtained values divided by the number of times tested. DYRK-inhibitory activity of the compounds of the present invention was tested using the ADP-Glo™ assay as described in the following paragraphs. The procedure for determining the IC50 values with the ADP-Glo™ assay in in vitro kinase assays consists of two parts: […] Kinase reaction performed under optimized conditions; 2. Detection of ADP as a product of the reaction using ADP-Glo™ system (Promega). The tested compounds indicated in Table 5 below were dissolved in DMSO, then transferred to the V-bottom PP plate to perform nine serial dilutions (in order to obtain dose-response curves) in 25% DMSO, as indicated in Table 5 below. The optimized conditions for performing DYRK1B in vitro kinase assay were as follows: [table] For compound testing, the following protocol was used: two mixes were prepared on ice, Mix 1 containing substrate, ATP and reaction buffer and Mix 2 containing reaction buffer and the kinase. 15 μL per well of Mix 1 was transferred to wells of a 96-well plate. […] Total reaction volume was 30 μL per well. The experiment was performed in duplicate for each data point being examined. Dose response curve for the positive control was carried out on each assay plate by adding the reference inhibitory compound staurosporine. For each test, three controls were also included: (i) 30 μL of the reaction mixture containing: reaction buffer, ATP, kinase, DMSO without substrate (quasi-positive control); (ii) 30 μL of the reaction mixture containing reaction buffer, substrate, ATP, DMSO without kinase (background control); (iii) 30 μL of the reaction mixture containing reaction buffer, substrate, kinase, ATP, DMSO (vehicle control). Final concentration of DMSO in the reaction was 2%. To detect the ADP amount produced during the kinase reaction, the commercially available kit ADP-Glo™ Kinase Assay (Promega, cat. No # V9103) was used. The protocol used for the detection was based on the Technical Bulletin of the ADP-Glo™ Kinase Assay (Promega) and was adapted to 96-well plate containing 30 μL reaction mixture as explained below. 30 μL of ADP-Glo™ Reagent was added to each well of a 96 well plate containing 30 μL of reaction mixture to terminate the kinase reaction and deplete the remaining ATP. The plate was incubated for 60 minutes on a shaker at rt. 60 μL of Kinase Detection Solution was then added to each well of 96-well plate containing 60 μL of the solution to convert ADP to ATP and to allow the newly synthesized ATP to be measured using a luciferase/luciferin reaction (ratio of kinase reaction volume to ADP Glo™ Reagent volume to Kinase Detection Solution volume was maintained at 1:1:2). The plate was incubated for 40 minutes on a shaker at rt, protected from light. Luminescence was measured in the plate reader, wherein the luminescent signal is proportional to the ADP concentration produced and thus correlates with kinase activity. After data normalization to controls (complete reaction mix and no-substrate control) and transforming X values (test compound concentrations) using: X=log(X), IC50 values were determined, using the GraphPad Prism 6.0 [log(agonist) vs. normalized response—Variable slope].

DYRK1A = molecular target: T2, DYRK1A (Homo sapiens, UniProt Q13627); assay: DYRK1A in vitro kinase assay (ADP-Glo); type: biochemical; settings: ATP 70 μM (Km), substrate 3 μM, enzyme 2 nM or 0.7 nM, 30 min, rt
T2 construct: purchased Carna Bioscence (Carna Biosciences) 04-130
Method: The compounds of the present invention were tested for their inhibitory activity against DYRK1A and DYRK1B kinases once or several times. When tested more than once, the data are reported herein as average value, wherein the average value, also referred to as the mean value, represents the sum of obtained values divided by the number of times tested.
DYRK-inhibitory activity of the compounds of the present invention was tested using the ADP-Glo™ assay as described in the following paragraphs. The procedure for determining the IC50 values with the ADP-Glo™ assay in in vitro kinase assays consists of two parts:
1. Kinase reaction performed under optimized conditions;
2. Detection of ADP as a product of the reaction using ADP-Glo™ system (Promega).
The tested compounds indicated in Table 5 below were dissolved in DMSO, then transferred to the V-bottom PP plate to perform nine serial dilutions (in order to obtain dose-response curves) in 25% DMSO, as indicated in Table 5 below.
The optimized conditions for performing DYRK1A in vitro kinase assay were as follows:
For compound testing, the following protocol was used: two mixes were prepared on ice, Mix 1 containing substrate, ATP and reaction buffer and Mix 2 containing reaction buffer and the kinase. 15 μL per well of Mix 1 was transferred to wells of a 96-well plate. Next, 2.5 μL of the pre-diluted compound to be tested was added to Mix 1, followed by the addition of 12.5 μL of Mix 2. Total reaction volume was 30 μL per well. The experiment was performed in duplicate for each data point being examined. Dose response curve for the positive control was carried out on each assay plate by adding the reference inhibitory compound staurosporine. For each test, three controls were also included: (i) 30 μL of the reaction mixture containing: reaction buffer, ATP, kinase, DMSO without substrate (quasi-positive control); (ii) 30 μL of the reaction mixture containing reaction buffer, substrate, ATP, DMSO without kinase (background control); (iii) 30 μL of the reaction mixture containing reaction buffer, substrate, kinase, ATP, DMSO (vehicle control). Final concentration of DMSO in the reaction was 2%. To detect the ADP amount produced during the kinase reaction, the commercially available kit ADP-Glo™ Kinase Assay (Promega, cat. No # V9103) was used. The protocol used for the detection was based on the Technical Bulletin of the ADP-Glo™ Kinase Assay (Promega) and was adapted to 96-well plate containing 30 μL reaction mixture as explained below.
30 μL of ADP-Glo™ Reagent was added to each well of a 96 well plate containing 30 μL of reaction mixture to terminate the kinase reaction and deplete the remaining ATP. The plate was incubated for 60 minutes on a shaker at rt. 60 μL of Kinase Detection Solution was then added to each well of 96-well plate containing 60 μL of the solution to convert ADP to ATP and to allow the newly synthesized ATP to be measured using a luciferase/luciferin reaction (ratio of kinase reaction volume to ADP Glo™ Reagent volume to Kinase Detection Solution volume was maintained at 1:1:2). The plate was incubated for 40 minutes on a shaker at rt, protected from light. Luminescence was measured in the plate reader, wherein the luminescent signal is proportional to the ADP concentration produced and thus correlates with kinase activity.
After data normalization to controls (complete reaction mix and no-substrate control) and transforming X values (test compound concentrations) using: X=log(X), IC50 values were determined, using the GraphPad Prism 6.0 [log(agonist) vs. normalized response—Variable slope].

T1 sequence (Q9Y463 whole entry): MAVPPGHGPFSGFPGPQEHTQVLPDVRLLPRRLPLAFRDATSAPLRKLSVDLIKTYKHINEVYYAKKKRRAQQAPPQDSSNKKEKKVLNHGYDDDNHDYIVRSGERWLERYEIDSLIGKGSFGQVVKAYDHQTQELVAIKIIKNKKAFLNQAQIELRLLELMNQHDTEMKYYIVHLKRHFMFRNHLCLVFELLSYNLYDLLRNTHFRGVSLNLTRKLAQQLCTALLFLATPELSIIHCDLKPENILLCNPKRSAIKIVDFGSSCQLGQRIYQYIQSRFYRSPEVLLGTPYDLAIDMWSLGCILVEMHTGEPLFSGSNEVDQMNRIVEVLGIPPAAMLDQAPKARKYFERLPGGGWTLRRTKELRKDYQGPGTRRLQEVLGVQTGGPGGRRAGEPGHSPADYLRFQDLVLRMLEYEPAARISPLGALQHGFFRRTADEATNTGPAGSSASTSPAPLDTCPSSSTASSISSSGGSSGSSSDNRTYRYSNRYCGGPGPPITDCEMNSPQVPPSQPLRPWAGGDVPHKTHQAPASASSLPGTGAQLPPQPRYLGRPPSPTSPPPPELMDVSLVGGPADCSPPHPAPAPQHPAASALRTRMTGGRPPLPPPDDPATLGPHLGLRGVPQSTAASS

## CNC(=O)c1cnc2[nH]cc(-c3cc(F)c4nccc(N5CCC[C@@H](N)C5)c4c3)c2c1 [Example 41, 3-{4-[(3R)-3-Aminopiperidin-1-yl]-8-fluoroquinolin-6-yl}-N-methyl-1H-pyrrolo[2,3-b]pyridine-5-carboxamide hydrochloride]
DYRK1B
  IC50: < 10 nM
DYRK1A
  IC50: < 10 nM

## CNC(=O)c1cnc2[nH]cc(-c3cc(F)c4nccc(N5CCC[C@H](N)C5)c4c3)c2c1 [Example 43, 3-{4-[(3S)-3-Aminopiperidin-1-yl]-8-fluoroquinolin-6-yl}-N-methyl-1H-pyrrolo[2,3-b]pyridine-5-carboxamide hydrochloride]
DYRK1B
  IC50: < 10 nM
DYRK1A
  IC50: < 10 nM

## CNC(=O)c1cnc2[nH]cc(-c3cc(F)c4nccc(-c5cnccc5C)c4c3)c2c1 [Example 44, N-Methyl-3-[8-fluoro-4-(4-methylpyridin-3-yl)quinolin-6-yl]-1H-pyrrolo[2,3-b]pyridine-5-carboxamide]
DYRK1B
  IC50: < 10 nM
DYRK1A
  IC50: < 10 nM

## COc1cc(-c2c[nH]c3ncc(C(N)=O)cc23)cc2c(-c3cccnc3)ccnc12 [Example 45, 3-[8-Methoxy-4-(pyridin-3-yl)quinolin-6-yl]-1H-pyrrolo[2,3-b]pyridine-5-carboxamide]
DYRK1B
  IC50: 10 to 100 nM
DYRK1A
  IC50: > 100 nM

## CC(=O)Nc1cnc2[nH]cc(-c3cc(F)c4nccc(-c5cccnc5)c4c3)c2c1 [Example 46, N-{3-[8-Fluoro-4-(pyridin-3-yl)quinolin-6-yl]-1H-pyrrolo[2,3-b]pyridin-5-yl}acetamide]
DYRK1B
  IC50: < 10 nM
DYRK1A
  IC50: < 10 nM

## O=C(NCc1cccnc1)c1cnc2[nH]cc(-c3cc(F)c4nccc(-c5cccnc5)c4c3)c2c1 [Example 47, 3-[8-Fluoro-4-(pyridin-3-yl)quinolin-6-yl]-N-(pyridin-3-ylmethyl)-1H-pyrrolo[2,3-b]pyridine-5-carboxamide]
DYRK1B
  IC50: < 10 nM
DYRK1A
  IC50: < 10 nM

## N[C@@H]1CCCN(c2ccnc3c(F)cc(-c4c[nH]c5ncc(C(=O)NCc6cccnc6)cc45)cc23)C1 [Example 48, 3-{4-[(3R)-3-Aminopiperidin-1-yl]-8-fluoroquinolin-6-yl}-N-(pyridin-3-ylmethyl)-1H-pyrrolo[2,3-b]pyridine-5-carboxamide hydrochloride]
DYRK1B
  IC50: < 10 nM
DYRK1A
  IC50: < 10 nM

## N[C@@H]1CCCN(c2ccnc3c(F)cc(-c4c[nH]c5ncc(C(=O)NCc6cncnc6)cc45)cc23)C1 [Example 49, 3-{4-[(3R)-3-Aminopiperidin-1-yl]-8-fluoroquinolin-6-yl}-N-(pyrimidin-5-ylmethyl)-1H-pyrrolo[2,3-b]pyridine-5-carboxamide hydrochloride]
DYRK1B
  IC50: < 10 nM
DYRK1A
  IC50: < 10 nM

## Fc1cc(-c2c[nH]c3ncc(CNCc4ccccc4)cc23)cc2c(-c3cccnc3)ccnc12 [Example 50, Benzyl({3-[8-fluoro-4-(pyridin-3-yl)quinolin-6-yl]-1H-pyrrolo[2,3-b]pyridin-5-yl}methyl)amine]
DYRK1B
  IC50: < 10 nM
DYRK1A
  IC50: < 10 nM

## N[C@@H]1CCCN(c2ccnc3c(F)cc(-c4c[nH]c5ncc(CNCc6ccccc6)cc45)cc23)C1 [Example 51, (3R)-1-(6-{5-[(Benzylamino)methyl]-1H-pyrrolo[2,3-b]pyridin-3-yl}-8-fluoroquinolin-4-yl)piperidin-3-amine]
DYRK1B
  IC50: < 10 nM
DYRK1A
  IC50: < 10 nM

## C=CCN(C)Cc1cnc2[nH]cc(-c3cc(F)c4nccc(-c5cccnc5)c4c3)c2c1 [Example 52, ({3-[8-Fluoro-4-(pyridin-3-yl)quinolin-6-yl]-1H-pyrrolo[2,3-b]pyridin-5-yl}methyl)(methyl)(prop-2-en-1-yl)amine]
DYRK1B
  IC50: < 10 nM
DYRK1A
  IC50: 10 to 100 nM

## CNC(=O)c1cnc2[nH]cc(-c3ccc4ncc([N+](=O)[O-])c(N5CCC[C@H](N)C5)c4c3)c2c1 [Example 53, 3-{4-[(3S)-3-Aminopiperidin-1-yl]-3-nitroquinolin-6-yl}-N-methyl-1H-pyrrolo[2,3-b]pyridine-5-carboxamide hydrochloride]
DYRK1B
  IC50: < 10 nM
DYRK1A
  IC50: 10 to 100 nM

## CNC(=O)c1cnc2[nH]cc(-c3ccc4ncc(N)c(N5CCC[C@H](N)C5)c4c3)c2c1 [Example 54, 3-{3-Amino-4-[(3S)-3-aminopiperidin-1-yl]quinolin-6-yl}-N-methyl-1H-pyrrolo[2,3-b]pyridine-5-carboxamide hydrochloride]
DYRK1B
  IC50: < 10 nM
DYRK1A
  IC50: < 10 nM

## CNC(=O)c1cnc2[nH]cc(-c3ccc4ncc(NCc5cccc(Cl)c5)c(N5CCC[C@H](N)C5)c4c3)c2c1 [Example 55, 3-{4-[(3S)-3-Aminopiperidin-1-yl]-3-{[(3-chlorophenyl)methyl]amino}quinolin-6-yl}-N-methyl-1H-pyrrolo[2,3-b]pyridine-5-carboxamide hydrochloride]
DYRK1B
  IC50: < 10 nM
DYRK1A
  IC50: 10 to 100 nM

## CNC(=O)c1cnc2[nH]cc(-c3ccc4ncc(NCc5cccc(Cl)c5)c(N5CCOCC5)c4c3)c2c1 [Example 56, 3-(3-{[(3-Chlorophenyl)methyl]amino}-4-(morpholin-4-yl)quinolin-6-yl)-N-methyl-1H-pyrrolo[2,3-b]pyridine-5-carboxamide]
DYRK1B
  IC50: < 10 nM
DYRK1A
  IC50: 10 to 100 nM

## CNC(=O)c1cnc2[nH]cc(-c3ccc4ncc(NC(C)=O)c(N5CCOCC5)c4c3)c2c1 [Example 57, 3-[3-Acetamido-4-(morpholin-4-yl)quinolin-6-yl]-N-methyl-1H-pyrrolo[2,3-b]pyridine-5-carboxamide]
DYRK1B
  IC50: < 10 nM
DYRK1A
  IC50: < 10 nM

Reference: patent US10577365B2, “Derivatives of quinoline as inhibitors of DYRK1A and/or DYRK1B kinases” (Felicitex Therapeutics, Inc., priority 2016, dated 2020)
